Reference: PMC10177380 (Cancers, 2023)
Where two headings read alike, the source gives them in different places.

Columns and labels:
MCF7 breast = test system: MCF7 breast; design: method as in PMID 36296713, PMID 36142383; settings: cited from earlier work
HT29 colon cells = test system: HT29 colon cells; design: method as in PMID 36296713, PMID 36142383; settings: cited from earlier work
BE2C neuroblastoma = test system: BE2C neuroblastoma; design: method as in PMID 36296713, PMID 36142383; settings: cited from earlier work
MIA pancreas = test system: MIA pancreas; design: method as in PMID 36296713, PMID 36142383; settings: cited from earlier work
Du145 prostate = test system: Du145 prostate; design: method as in PMID 36296713, PMID 36142383; settings: cited from earlier work
A431 skin = test system: A431 skin; design: method as in PMID 36296713, PMID 36142383; settings: cited from earlier work
HT29 colon = test system: HT29 colon; design: method as in PMID 36296713, PMID 36142383; settings: cited from earlier work
multiple cell lines = test system: multiple cell lines; design: method as in PMID 36296713, PMID 36142383; settings: mean over all cell lines tested; cited from earlier work
A2780 ovarian = test system: A2780 ovarian; design: method as in PMID 36296713, PMID 36142383; settings: cited from earlier work
H460 lung = test system: H460 lung; design: method as in PMID 36296713, PMID 36142383; settings: cited from earlier work
MCF10A / Du145 = test system: MCF10A / Du145; design: method as in PMID 36296713, PMID 36142383; settings: GI50 in MCF10A/GI50 in Du145, from data of previous studies; cited from earlier work
[1] = test system: non-tumour derived MCF10A breast line; design: method as in PMID 36296713, PMID 36142383; settings: cited from earlier work
U87 glioblastoma = test system: U87 glioblastoma; design: method as in PMID 36296713, PMID 36142383; settings: cited from earlier work
SJG2 glioblastoma = test system: SJG2 glioblastoma; design: method as in PMID 36296713, PMID 36142383; settings: cited from earlier work
[2] = test system: peritoneal carcinomatosis; design: method as in PMID 20535526; settings: BD-IX rats, intravenous and intraperitoneal routes; cited from earlier work
[3] = test system: PC3 (prostate carcinoma) tumour; design: method as in PMID 18997969; settings: mice with PC3 tumour, cited from earlier work; for reduction in mean tumour mass: relative to vehicle-treated control
[4] = Stability in 10 mM PBS monitored by HPLC; assay type: physicochemical; settings: 10 mM PBS pH ~7.4, 36 h, room temperature and 37 °C
Protocol: The stability measurements for complexes 1–6 were determined by dissolving each complex in 10 mM aqueous phosphate buffered saline (PBS) solution at pH ~7.4 and incubated at room temperature and at 37 °C for 36 h. The experiments were monitored via HPLC.
Additional stability studies for 1–6 were undertaken using 10 mM PBS (~7.4 pH) as the aqueous solution, but without the presence of a reducing agent such as AsA. This was only to show whether the complexes would be stable in aqueous solution for long hours. Each complex was dissolved in PBS and incubated at room temperature and at 37 °C for 36 h. After the incubation, all samples were analysed through HPLC. […] After 36 h at room temperature, peak traces of platinum(IV) complexes and the platinum(II) precursors, as well as the dissociated ACE ligand, were present, as shown in Figure S77. […] From this, it was reasoned that the larger the ligand conjugated to our platinum(IV) scaffold (i.e., ACE), the more susceptible the resulting derivatives (4–6) are to reduction, as they reduce even without a reducing agent. This parallels the results from the reduction experiments above, where 4–6 were the quickest to reduce in the presence of AsA.

[5] = Lipophilicity by HPLC (log kw); assay type: physicochemical; settings: extrapolated from log k versus % organic solvent
Protocol: Lipophilicity measurements were undertaken using HPLC, as previously described (see Supplementary Materials).
Lipophilicity measurements were undertaken using HPLC as previously described. The complexes were eluted at different isocratic ratios. The capacity factor (k) was calculated using the retention times of the complexes. A standard curve was generated to determine the log value of the capacity factor (log k), and this was performed by plotting the log k value at each isocratic ratio versus the percentage of the organic solvent used in solvent (Figure S61). This produced a linear expression that allowed for the extrapolation of log kw. Log kw is the measure of lipophilicity; therefore, a greater value corresponds to increased lipophilicity.

[6] = design: method as in earlier work; settings: cited from earlier work
[7] = Selectivity cytotoxicity index (GI50 in MCF10A/GI50 in Du145); settings: human, MCF10A normal breast cells and Du145 prostate cancer cells

SMILES	GI50 (MCF7 breast)	ROS Production (HT29 colon cells; HT29, 24 h)	ROS Production (HT29 colon cells; HT29, 48 h)	ROS Production (HT29 colon cells; HT29, 72 h)	GI50 (BE2C neuroblastoma)	GI50 (MIA pancreas)	GI50 (Du145 prostate)	GI50 (A431 skin)	GI50 (HT29 colon)	GI50 (multiple cell lines)	GI50 (A2780 ovarian)	GI50 (H460 lung)	Selectivity Cytotoxicity Index (SCI) (MCF10A / Du145)	GI50 [1]	GI50 (U87 glioblastoma)	GI50 (SJG2 glioblastoma)	log kw Values [5]	further results
Cc1cc2c3c4c1=CC=C[N]4[Pt+2][N]3C=CC=2.N[C@H]1CCCC[C@@H]1N [Complex 5MESS]	200 ± 12 nM	204 ± 4 RFU	205 ± 3 RFU	188 ± 3 RFU	270 ± 38 nM	48 ± 2 nM	22 ± 3 nM	120 ± 25 nM	33 ± 4 nM	117 ± 12 nM	61 ± 10 nM	41 ± 5 nM	1.36	30 ± 2 nM	320 ± 26 nM	220 ± 10 nM	–	–
Cc1c(C)c2cccnc2c2ncccc12.N[C@H]1CCCC[C@@H]1N.[Pt] [Complex 56MESS, [Pt^II(5,6-Me2phen)(SS-DACH)]^2+]	93 ± 44 nM	240 ± 5 RFU	218 ± 3 RFU	255 ± 4 RFU	59 ± 4 nM	13 ± 2 nM	4.6 ± 0.4 nM	29 ± 1 nM	10 ± 1.6 nM	36 ± 10 nM	76 ± 57 nM	21 ± 2 nM	3.48	16 ± 1 nM	35 ± 6.4 nM	66 ± 22 nM	–	toxicity [2]: induced nephrotoxicity; tumour suppression response [2]: did not demonstrate tumour suppression response
C1=C[N]2[Pt+2][N]3C=CC=c4ccc(c2c43)=C1.N[C@H]1CCCC[C@@H]1N [PHENSS]	1500 ± 500 nM	174 ± 2 RFU	172 ± 9 RFU	176 ± 7 RFU	380 ± 46 nM	200 ± 57 nM	100 ± 38 nM	480 ± 170 nM	160 ± 45 nM	434 ± 110 nM	230 ± 30 nM	360 ± 35 nM	3.00	300 ± 58 nM	980 ± 270 nM	330 ± 66 nM	–	reduction in mean tumour mass [3]: comparable reduction in mean tumour mass; toxic side effects [3]: did not elicit any toxic side effects
COc1ccc2cc([C@H](C)C(=O)[O][Pt+2]3([OH])[N]4C=CC=c5cc(C)c6c(c54)[N]3C=CC=6)ccc2c1.N[C@H]1CCCC[C@@H]1N (some centres unmarked) [Complex 2, [Pt^IV(5-Mephen)(SS-DACH)(NPX)(OH)]^2+]	–	–	–	–	–	–	–	–	–	–	–	–	–	–	–	–	–	stability in PBS [4]: some traces of precursor platinum(IV) complexes and the dissociated NPX ligand were evident
COc1ccc2c(c1)c(CC(=O)OCC(=O)[O][Pt-2]13([OH])([NH2+][C@H]4CCCC[C@@H]4[NH2+]1)[n+]1cccc4ccc5ccc[n+]3c5c41)c(C)n2C(=O)c1ccc(Cl)cc1 [Complex 4, [Pt^IV(phen)(SS-DACH)(ACE)(OH)]^2+]	–	–	–	–	–	–	–	–	–	–	–	–	–	–	–	–	1.93	–
COc1ccc2c(c1)c(CC(=O)OCC(=O)O)c(C)n2C(=O)c1ccc(Cl)cc1 [ACE, acemetacin]	–	–	–	–	–	–	–	–	–	–	–	–	–	–	–	–	–	reported lipophilicity values [6]: 4.49; selectivity ratio [7]: 1
COc1ccc2c(c1)c(CC(=O)OCC(=O)[O][Pt-2]13([OH])([NH2+][C@H]4CCCC[C@@H]4[NH2+]1)[n+]1cccc4c(C)c(C)c5ccc[n+]3c5c41)c(C)n2C(=O)c1ccc(Cl)cc1 [Complex 6, [Pt^IV(5,6-Me2phen)(SS-DACH)(ACE)(OH)]^2+]	–	–	–	–	–	–	–	–	–	–	–	–	–	–	–	–	2.29	–
N.N.[Cl][Pt][Cl] [Cisplatin, cis-diamminedichloroplatinum(II)]	6500 ± 800 nM	–	–	–	1900 ± 200 nM	7500 ± 1300 nM	1200 ± 100 nM	2400 ± 300 nM	11300 nM	5840 ± 610 nM	1000 ± 100 nM	900 ± 200 nM	–	5200 ± 520 nM	3800 ± 1100 nM	400 ± 100 nM	–	reduction in mean tumour mass [3]: comparable reduction in mean tumour mass
COc1ccc2c(c1)c(CC(=O)OCC(=O)[O][Pt-2]13([OH])([NH2+][C@H]4CCCC[C@@H]4[NH2+]1)[n+]1cccc4cc(C)c5ccc[n+]3c5c41)c(C)n2C(=O)c1ccc(Cl)cc1 [Complex 5, [Pt^IV(5-Mephen)(SS-DACH)(ACE)(OH)]^2+]	–	–	–	–	–	–	–	–	–	–	–	–	–	–	–	–	2.16	–
